Reference: article PMC9412362, “Design, Synthesis, and Characterization of Novel Coordination Compounds of Benzimidazole Derivatives with Cadmium” (Pharmaceutics, 2022)
In brackets after ≈: the same amount, converted by molar mass.

Columns and labels:
[1] = test system: M. luteus ATCC 10240; experiment: MIC, micro-dilution broth method; type: cell-based, Micrococcus luteus; details: Gram-positive bacteria, micro-dilution broth; for MIC: Micrococcus luteus, ATCC10240, read-out: MIC, M. luteus ATCC 10240
Method: (§1) Samples of complexes (about 20 mg) were digested in a concentrated mixture of 36% HCl (1 mL) and 65% HNO3 (6 mL). The contents of Cd (II) in the solid complexes were determined with an F-AAS spectrometer (Analytik Jena, contraAA 300, Jena, Germany) with a continuous source of light and using an air/acetylene flame (Analytik Jena, contraAA 300). Absorbances were measured at the analytical spectral lines at 228.8 nm for Cd (II). The limit of quantification was 0.004 mg/L for Cd (II). The solid samples were decomposed using an Anton Paar Multiwave 3000 (Graz, Austria) closed-system instrument. Mineralization was carried out for 45 min at 240 °C under a pressure of 60 bar. The contents of carbon, hydrogen, and nitrogen were determined with an instrument from Vario Micro Company Elementar Analysensysteme GmbH (Langenselbold, Germany). FTIR spectra were recorded with an IR Tracer-100 Schimadzu Spectrometer (4000–600 cm^−1 with an accuracy of recording of 1 cm^−1, Kyoto, Japan) using KBr pellets. The thermal analyses were carried out with a Netzsch STA 449 F1 Jupiter thermoanalyzer (Netzsch-Geratebau GmbH, Selb, Germany) coupled with a Netzsch Aeolos Quadro QMS 403 mass spectrometer (Netzsch-Geratebau GmbH, Selb, Germany). The samples were heated up to 1000 °C in corundum crucibles with a heating rate of 10 °C/min in an atmosphere of synthetic air (20% O2, 80% N2). The cytotoxic effects of the compounds were evaluated using glioblastoma (T98G), neuroblastoma (SK-N-AS), and lung adenocarcinoma (A549) cell lines and normal human skin fibroblasts (CCD-1059Sk). T98G and SK-N-AS cells were cultured in high-glucose DMEM and A549 cells were cultured in DMEM/F12, while CCD-1059Sk cells were cultured in MEM. All media were supplemented with 10% (FBS), 100 U/mL of penicillin, and […] of streptomycin (PenStrep). Cells were incubated at 37 °C in a humidified atmosphere of 5% CO2. Stock solutions were prepared by dissolving the compounds in sterile dimethyl sulfoxide (DMSO) to obtain a concentration of 50 mg/mL. The cells were seeded into sterile 96-well plates (Nunc) at a density of 1 × 10^5 cells/mL. After 24 h of incubation, the medium was removed from each well, and then the cells were incubated for the next 24 h with different concentrations of the tested compounds (1–100 µg/mL) in their respective media containing 2% FBS. The cytotoxicity of the compounds was evaluated using an MTT assay, which was based on the conversion of 3-(4,5-dimethylthiazol-2-yl)-2,5-diphenyltetrazolium bromide (MTT) into dark-blue formazan crystals. Briefly, after 24 h of incubation of the cells with varying concentrations of the tested compounds, all culture media were removed from the plates. The cells were washed with PBS, and then 100 µL of medium containing 10% MTT solution (5 mg/mL) was added to each well. After 3 h of incubation, 100 µL (per well) of 10% SDS buffer solution was added to solubilize the formazan crystals. After overnight incubation, the absorbance was measured at 570 nm using a microplate reader (Epoch, BioTek Instruments). Experiments were repeated twice, and the measurements in each experiment were run in triplicate. The viability of the investigated cells was expressed as the percentage of the viability of the untreated cells, and the results were transformed into IC50 values (expressed as mean ± SD). The complexes were screened for antibacterial and antifungal activity by using the micro-dilution broth method with Mueller–Hinton broth for the growth of bacteria or Mueller–Hinton broth with 2% glucose for the growth of fungi. […]

[2] = test system: P. aeruginosa ATCC 9027; experiment: MIC, micro-dilution broth method; type: cell-based, Pseudomonas aeruginosa; details: for MIC: Pseudomonas aeruginosa, ATCC9027, Gram-negative bacteria
Method: as §1

[3] = test system: B. cereus ATCC 10876; experiment: MIC, micro-dilution broth method; type: cell-based, Bacillus cereus; details: Gram-positive bacteria, micro-dilution broth; for MIC: Bacillus cereus, ATCC10876, read-out: MIC, B. cereus ATCC 10876
Method: as §1

[4] = test system: C. albicans ATCC 102231; experiment: MIC, micro-dilution broth method; type: cell-based, Candida albicans; details: for MIC: Candida albicans, ATCC102231, read-out: MIC, C. albicans ATCC 102231
Method: as §1

[5] = test system: C. glabrata ATCC 2091; experiment: MIC, micro-dilution broth method; type: cell-based; details: for MIC: Nakaseomyces glabratus, ATCC2091, read-out: MIC, C. glabrata ATCC 2091
Method: as §1

[6] = test system: C. parapsilosis ATCC 22019; experiment: MIC, micro-dilution broth method; type: cell-based, Candida parapsilosis; details: Yeasts, micro-dilution broth with 2% glucose; for MIC: Lodderomyces parapsilosis, ATCC22019
Method: as §1

[7] = test system: E. faecalis ATCC 29212; experiment: MIC, micro-dilution broth method; type: cell-based, Enterococcus faecalis; details: Gram-positive bacteria, micro-dilution broth; for MIC: Enterococcus faecalis, ATCC29212, read-out: MIC, E. faecalis ATCC 29212
Method: as §1

[8] = test system: S. aureus ATCC 25923; experiment: MIC, micro-dilution broth method; type: cell-based, Staphylococcus aureus; details: Gram-positive bacteria, micro-dilution broth; for MIC: Staphylococcus aureus, ATCC25923, read-out: MIC, S. aureus ATCC 25923
Method: as §1

[9] = test system: K. pneumoniae ATCC 13883; experiment: MIC, micro-dilution broth method; type: cell-based, Klebsiella pneumoniae; details: for MIC: Klebsiella pneumoniae, ATCC13883, Gram-negative bacteria
Method: as §1

[10] = test system: P. mirabilis ATCC 12453; experiment: MIC, micro-dilution broth method; type: cell-based, Proteus mirabilis; details: for MIC: Proteus mirabilis, ATCC12453, Gram-negative bacteria
Method: as §1

[11] = test system: S. epidermidis ATCC 12228; experiment: MIC, micro-dilution broth method; type: cell-based, Staphylococcus epidermidis; details: Gram-positive bacteria, micro-dilution broth; for MIC: Staphylococcus epidermidis, ATCC12228, read-out: MIC, S. epidermidis ATCC 12228
Method: as §1

[12] = Solubility in culture medium (MTT assay); type: physicochemical; details: culture medium of the MTT assay
Method: Samples of complexes (about 20 mg) were digested in a concentrated mixture of 36% HCl (1 mL) and 65% HNO3 (6 mL). The contents of Cd (II) in the solid complexes were determined with an F-AAS spectrometer (Analytik Jena, contraAA 300, Jena, Germany) with a continuous source of light and using an air/acetylene flame (Analytik Jena, contraAA 300). Absorbances were measured at the analytical spectral lines at 228.8 nm for Cd (II). The limit of quantification was 0.004 mg/L for Cd (II). The solid samples were decomposed using an Anton Paar Multiwave 3000 (Graz, Austria) closed-system instrument. Mineralization was carried out for 45 min at 240 °C under a pressure of 60 bar. The contents of carbon, hydrogen, and nitrogen were determined with an instrument from Vario Micro Company Elementar Analysensysteme GmbH (Langenselbold, Germany). FTIR spectra were recorded with an IR Tracer-100 Schimadzu Spectrometer (4000–600 cm^−1 with an accuracy of recording of 1 cm^−1, Kyoto, Japan) using KBr pellets. […] The cytotoxic effects of the compounds were evaluated using glioblastoma (T98G), neuroblastoma (SK-N-AS), and lung adenocarcinoma (A549) cell lines and normal human skin fibroblasts (CCD-1059Sk). […] The cytotoxicity of the compounds was evaluated using an MTT assay, which was based on the conversion of 3-(4,5-dimethylthiazol-2-yl)-2,5-diphenyltetrazolium bromide (MTT) into dark-blue formazan crystals. […]

[13] = test system: B. subtilis ATCC 6633; experiment: MIC, micro-dilution broth method; type: cell-based, Bacillus subtilis; details: Gram-positive bacteria, micro-dilution broth; for MIC: Bacillus subtilis, ATCC6633, read-out: MIC, B. subtilis ATCC 6633
Method: as §1

[14] = test system: S. typhimurium ATCC 14028; experiment: MIC, micro-dilution broth method; type: cell-based, Salmonella Typhimurium; details: Gram-negative bacteria; for MIC: Salmonella enterica
Method: as §1

[15] = test system: E. coli ATCC 25922; experiment: MIC, micro-dilution broth method; type: cell-based, Escherichia coli; details: for MIC: Escherichia coli, ATCC25922, Gram-negative bacteria
Method: as §1

[16] = test system: SK-N-AS cells; experiment: MTT cytotoxicity assay, neuroblastoma SK-N-AS; type: cell-based, human; details: Homo sapiens, SK-N-AS, 24 h, MTT assay after 24 h of incubation, read-out: IC50 ± SD, SK-N-AS
Method: as §1

[17] = test system: A549 cells; experiment: MTT cytotoxicity assay, lung adenocarcinoma A549; type: cell-based, human; details: Homo sapiens; lung carcinoma A549, MTT assay after 24 h of incubation; read-out: IC50 ± SD, A549
Method: as §1

[18] = test system: CCD-1059Sk cells; experiment: MTT cytotoxicity assay, normal human skin fibroblasts CCD-1059Sk; type: cell-based; details: normal human fibroblasts CCD-1059Sk, MTT assay after 24 h of incubation; read-out: IC50 ± SD, CCD-1059-Sk
Method: as §1

[19] = test system: T98G cells; experiment: MTT cytotoxicity assay, glioblastoma T98G; type: cell-based, human; details: Homo sapiens, MTT assay after 24 h of incubation, read-out: IC50 ± SD, T98G
Method: as §1

[20] = Yeasts, micro-dilution broth with 2% glucose

| SMILES | IC50 [16] | MIC [1] | MIC [2] | MIC [3] | MIC [4] | MIC [5] | MIC [6] | MIC [7] | MIC [8] | MIC [9] | MIC [10] | MIC [11] | IC50 [17] | IC50 [18] | IC50 [19] | MIC [13] | MIC [14] | MIC [15] | also measured |
| --- | --- | --- | --- | --- | --- | --- | --- | --- | --- | --- | --- | --- | --- | --- | --- | --- | --- | --- | --- |
| O.[Cl][Cd][Cl].c1cc(-c2nc3ccncc3[nH]2)ccn1 [C1, Cd(L1)Cl2∙H2O] | – | – | – | – | – | – | – | – | – | – | – | – | – | – | – | – | – | – | MIC, M. luteus ATCC 10240 [1]: 7.8 µg/mL; MIC, P. aeruginosa ATCC 9027 ([2]; Gram-negative bacteria): >1000 µg/mL; MIC, B. cereus ATCC 10876 [3]: 500 µg/mL; MIC, C. albicans ATCC 102231 [4, 20]: 500 µg/mL; MIC, C. glabrata ATCC 2091 [5, 20]: 62.5 µg/mL; MIC, C. parapsilosis ATCC 22019 [6]: 15.6 µg/mL; MIC, E. faecalis ATCC 29212 [7]: 125 µg/mL; MIC, S. aureus ATCC 25923 [8]: 500 µg/mL; MIC, K. pneumoniae ATCC 13883 ([9]; Gram-negative bacteria): 1000 µg/mL; MIC, P. mirabilis ATCC 12453 ([10]; Gram-negative bacteria): 1000 µg/mL; MIC, S. epidermidis ATCC 12228 [11]: 250 µg/mL; solubility in culture medium [12]: Not determined due to low solubility in culture medium; MIC, B. subtilis ATCC 6633 [13]: 7.8 µg/mL; MIC, S. typhimurium ATCC 14028 [14]: 1000 µg/mL; MIC, E. coli ATCC 25922 ([15]; Gram-negative bacteria): 1000 µg/mL |
| c1cc(-c2nc3ccncc3[nH]2)ccn1 [L1] | > 509 µM | 500 µg/mL (≈ 2.55 mM) | > 1000 µg/mL | > 1000 µg/mL | > 1000 µg/mL | > 1000 µg/mL | > 1000 µg/mL | > 1000 µg/mL | > 1000 µg/mL | > 1000 µg/mL | > 1000 µg/mL | > 1000 µg/mL | > 509 µM | > 509 µM | 210 ± 12 µM | > 1000 µg/mL | > 1000 µg/mL | > 1000 µg/mL | – |
| c1cnc2[nH]c(-c3ccncc3)nc2c1 [L2] | 415 ± 17 µM | 250 µg/mL (≈ 1.27 mM) | > 1000 µg/mL | 250 µg/mL (≈ 1.27 mM) | 1000 µg/mL (≈ 5.1 mM) | > 1000 µg/mL | > 1000 µg/mL | 1000 µg/mL (≈ 5.1 mM) | 1000 µg/mL (≈ 5.1 mM) | > 1000 µg/mL | 1000 µg/mL (≈ 5.1 mM) | 1000 µg/mL (≈ 5.1 mM) | 220 ± 11 µM | > 509 µM | 178 ± 7.3 µM | 500 µg/mL (≈ 2.55 mM) | 1000 µg/mL (≈ 5.1 mM) | 1000 µg/mL (≈ 5.1 mM) | – |
| c1cncc(-c2nc3cccnc3[nH]2)c1 [L3] | > 509 µM | 500 µg/mL (≈ 2.55 mM) | > 1000 µg/mL | 1000 µg/mL (≈ 5.1 mM) | > 1000 µg/mL | > 1000 µg/mL | 1000 µg/mL (≈ 5.1 mM) | > 1000 µg/mL | > 1000 µg/mL | > 1000 µg/mL | > 1000 µg/mL | > 1000 µg/mL | > 509 µM | > 509 µM | > 509 µM | 1000 µg/mL (≈ 5.1 mM) | > 1000 µg/mL | > 1000 µg/mL | – |
| Brc1cnc2[nH]c(-c3cccnc3)nc2c1 [L4] | > 362 µM | > 1000 µg/mL | > 1000 µg/mL | 1000 µg/mL (≈ 3.63 mM) | 500 µg/mL (≈ 1.82 mM) | > 1000 µg/mL | 1000 µg/mL (≈ 3.63 mM) | 1000 µg/mL (≈ 3.63 mM) | > 1000 µg/mL | > 1000 µg/mL | > 1000 µg/mL | 1000 µg/mL (≈ 3.63 mM) | > 362 µM | > 362 µM | > 362 µM | 1000 µg/mL (≈ 3.63 mM) | > 1000 µg/mL | > 1000 µg/mL | – |
